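48-hour exposure; five concentrations; linearly interpolated endpoints. GI50 marks 50% less growth.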 Calls of active or inactive are those of the source. Cut-off read from the data, not from the text of the source: active = GI50 up to about 1.1 µM and inactive = higher.
Tests used:
Experiment in all cases: NCI anticancer screen, dose series, 48 h
[1] = tested on: OVCAR-8
[2] = tested on: XF498
[3] = tested on: M14
[4] = tested on: LXFL 529
[5] = tested on: SK-MEL-28
[6] = tested on: NCI-H460
[7] = tested on: HT-29
[8] = tested on: 786-0
[9] = tested on: KM-20L2
[10] = tested on: U-251
[11] = tested on: HOP-92
[12] = tested on: MOLT-4
[13] = tested on: ACHN
[14] = tested on: DMS-273
[15] = tested on: NCI-H23
[16] = tested on: SN12C
[17] = tested on: NCI/ADR-RES
[18] = tested on: BT-549
[19] = tested on: DU-145
[20] = tested on: MCF7

For CN(NC1OC(CO)C(O)C(O)C1O)c1ccccc1 (configuration not stated), the GI50 [1] was > 100 µM (inactive), the GI50 [2] was 16.4 µM (inactive) and the GI50 [3] was > 100 µM (inactive). For the same compound, the GI50 [4] was > 100 µM (inactive), the GI50 [5] was > 100 µM (inactive) and the GI50 [6] was > 100 µM (inactive). The GI50 [7] was > 100 µM (inactive), the GI50 [8] was > 100 µM (inactive) and the GI50 [9] was > 100 µM (inactive). For the same compound, the GI50 [10] was > 100 µM (inactive), the GI50 [11] was > 100 µM (inactive) and the GI50 [12] was > 100 µM (inactive). The GI50 [13] was > 100 µM (inactive), the GI50 [14] was > 100 µM (inactive) and the GI50 [15] was > 100 µM (inactive).

In the case of Cc1nc(-c2nc([N+](=O)[O-])c([N+](=O)[O-])[nH]2)cs1, the GI50 [2] is reported as > 100 µM (inactive), the GI50 [3] is reported as > 100 µM (inactive) and the GI50 [4] is reported as > 100 µM (inactive). The GI50 [5] was > 100 µM (inactive), the GI50 [6] was > 100 µM (inactive) and the GI50 [7] was > 100 µM (inactive). For the same compound, the GI50 [16] was > 100 µM (inactive), the GI50 [9] was > 100 µM (inactive) and the GI50 [10] was > 100 µM (inactive). For the same compound, the GI50 [11] was > 100 µM (inactive), the GI50 [12] was > 100 µM (inactive) and the GI50 [13] was > 100 µM (inactive). The GI50 [14] was > 100 µM (inactive) and the GI50 [15] was > 100 µM (inactive).

O=C1c2cc3c(cc2[C@@H]2C(O)[C@H]4O[C@H]4C4CCN1C42)OCO3 (some centres not stated) was tested, and the GI50 [1] was > 37.5 µM (inactive), the GI50 [2] was > 37.5 µM (inactive) and the GI50 [3] was > 37.5 µM (inactive). The GI50 [4] was > 37.5 µM (inactive), the GI50 [5] was > 37.5 µM (inactive) and the GI50 [6] was > 37.5 µM (inactive). For the same compound, the GI50 [7] was > 37.5 µM (inactive), the GI50 [16] was > 37.5 µM (inactive) and the GI50 [9] was > 37.5 µM (inactive). For the same compound, the GI50 [11] was > 37.5 µM (inactive), the GI50 [12] was > 37.5 µM (inactive) and the GI50 [13] was > 37.5 µM (inactive). The GI50 [14] was > 37.5 µM (inactive).

With C[N+](C)(C)CC1CCc2ccccc2C1=O (configuration not stated) the GI50 [1] was 17.1 µM (inactive), the GI50 [2] was 2.39 µM (inactive) and the GI50 [3] was 5.87 µM (inactive). The GI50 [4] was 2.57 µM (inactive), the GI50 [5] was 8.89 µM (inactive) and the GI50 [17] was 10.6 µM (inactive). For the same compound, the GI50 [6] was 19.7 µM (inactive), the GI50 [7] was 6.03 µM (inactive) and the GI50 [16] was 8.43 µM (inactive). For the same compound, the GI50 [8] was 6.46 µM (inactive), the GI50 [9] was 19.6 µM (inactive) and the GI50 [10] was 5.64 µM (inactive). For the same compound, the GI50 [18] was 15.5 µM (inactive), the GI50 [11] was 7.35 µM (inactive) and the GI50 [12] was 2.32 µM (inactive). The GI50 [19] was 18.6 µM (inactive), the GI50 [13] was 7.55 µM (inactive) and the GI50 [14] was 2.16 µM (inactive). The GI50 [15] was 13.3 µM (inactive) and the GI50 [20] was 1.64 µM (inactive).

For O=C1NN=C(c2ccc([N+](=O)[O-])cc2)C1n1nc(-c2ccccc2)c2ccccc2c1=O (configuration not stated), the GI50 [1] was > 88.1 µM (inactive), the GI50 [2] was > 100 µM (inactive) and the GI50 [3] was > 100 µM (inactive). The GI50 [4] was > 100 µM (inactive), the GI50 [5] was > 100 µM (inactive) and the GI50 [6] was > 92.5 µM (inactive). The GI50 [7] was > 100 µM (inactive), the GI50 [16] was > 100 µM (inactive) and the GI50 [8] was > 100 µM (inactive). For the same compound, the GI50 [9] was > 100 µM (inactive), the GI50 [10] was > 95.7 µM (inactive) and the GI50 [11] was > 100 µM (inactive). The GI50 [12] was > 94.2 µM (inactive), the GI50 [13] was > 100 µM (inactive) and the GI50 [14] was > 46 µM (inactive). For the same compound, the GI50 [15] was > 100 µM (inactive).

O=C1C(=O)N(c2cc(Cl)ccc2Cl)C(=O)C(=O)C1c1nc2ccccc2o1 was tested, and the GI50 [1] was > 100 µM (inactive), the GI50 [2] was > 100 µM (inactive) and the GI50 [3] was > 91.8 µM (inactive). The GI50 [4] was > 100 µM (inactive), the GI50 [5] was > 100 µM (inactive) and the GI50 [6] was > 100 µM (inactive). The GI50 [7] was > 100 µM (inactive), the GI50 [16] was > 100 µM (inactive) and the GI50 [8] was > 100 µM (inactive). For the same compound, the GI50 [9] was > 100 µM (inactive), the GI50 [10] was > 100 µM (inactive) and the GI50 [11] was > 100 µM (inactive). The GI50 [12] was 30.1 µM (inactive), the GI50 [13] was > 100 µM (inactive) and the GI50 [14] was > 100 µM (inactive). For the same compound, the GI50 [15] was > 100 µM (inactive).

With COCCOCCOCCOc1cccc2c1C(=O)c1cccc(OCCOCCOCCOC)c1C2=O the GI50 [1] was > 100 µM (inactive), the GI50 [2] was > 100 µM (inactive) and the GI50 [3] was > 100 µM (inactive). For the same compound, the GI50 [4] was > 100 µM (inactive), the GI50 [5] was > 100 µM (inactive) and the GI50 [6] was 70.6 µM (inactive). For the same compound, the GI50 [7] was > 100 µM (inactive), the GI50 [16] was > 100 µM (inactive) and the GI50 [8] was > 100 µM (inactive). The GI50 [9] was > 100 µM (inactive), the GI50 [10] was > 100 µM (inactive) and the GI50 [11] was > 100 µM (inactive). For the same compound, the GI50 [12] was 71.8 µM (inactive), the GI50 [13] was > 100 µM (inactive) and the GI50 [14] was > 100 µM (inactive). The GI50 [15] was > 100 µM (inactive).

O=C(O)C1Cc2[nH]c3ccccc3c2C2CCCC12 (configuration not stated) was tested, and the GI50 [1] was > 100 µM (inactive), the GI50 [2] was > 100 µM (inactive) and the GI50 [3] was > 100 µM (inactive). The GI50 [4] was > 100 µM (inactive), the GI50 [5] was > 100 µM (inactive) and the GI50 [6] was > 100 µM (inactive). For the same compound, the GI50 [16] was > 100 µM (inactive), the GI50 [8] was > 100 µM (inactive) and the GI50 [9] was > 100 µM (inactive). For the same compound, the GI50 [10] was > 100 µM (inactive), the GI50 [11] was > 100 µM (inactive) and the GI50 [12] was > 100 µM (inactive). For the same compound, the GI50 [13] was > 100 µM (inactive), the GI50 [14] was > 100 µM (inactive) and the GI50 [15] was > 100 µM (inactive).

In the case of C1=CC(=NN=P(c2ccccc2)(c2ccccc2)c2ccccc2)C=C1, the GI50 [1] is reported as > 100 µM (inactive), the GI50 [2] is reported as > 100 µM (inactive) and the GI50 [3] is reported as > 100 µM (inactive). The GI50 [4] was > 100 µM (inactive), the GI50 [5] was > 100 µM (inactive) and the GI50 [6] was > 100 µM (inactive). The GI50 [7] was > 100 µM (inactive), the GI50 [16] was > 100 µM (inactive) and the GI50 [8] was > 100 µM (inactive). The GI50 [9] was > 100 µM (inactive), the GI50 [11] was 55.2 µM (inactive) and the GI50 [12] was > 100 µM (inactive). The GI50 [13] was > 100 µM (inactive), the GI50 [14] was > 100 µM (inactive) and the GI50 [15] was > 100 µM (inactive).

For C#C[C@H]1CCCCCC1O (some centres not stated), the GI50 [1] was > 100 µM (inactive), the GI50 [2] was > 100 µM (inactive) and the GI50 [3] was > 100 µM (inactive). For the same compound, the GI50 [4] was 96.8 µM (inactive), the GI50 [5] was > 100 µM (inactive) and the GI50 [6] was > 100 µM (inactive). The GI50 [7] was > 100 µM (inactive), the GI50 [16] was > 100 µM (inactive) and the GI50 [8] was > 100 µM (inactive). The GI50 [9] was > 100 µM (inactive), the GI50 [10] was > 100 µM (inactive) and the GI50 [11] was > 100 µM (inactive). The GI50 [12] was > 100 µM (inactive), the GI50 [13] was > 100 µM (inactive) and the GI50 [14] was > 100 µM (inactive). The GI50 [15] was > 100 µM (inactive).

With N=c1oc2cc(O)c(O)cc2cc1C(N)=O the GI50 [1] was > 100 µM (inactive), the GI50 [2] was > 100 µM (inactive) and the GI50 [3] was > 100 µM (inactive). The GI50 [4] was > 100 µM (inactive), the GI50 [5] was > 100 µM (inactive) and the GI50 [6] was > 100 µM (inactive). The GI50 [7] was > 100 µM (inactive), the GI50 [16] was > 100 µM (inactive) and the GI50 [8] was 43.5 µM (inactive). The GI50 [9] was > 100 µM (inactive), the GI50 [10] was > 100 µM (inactive) and the GI50 [11] was > 100 µM (inactive). For the same compound, the GI50 [12] was 84.9 µM (inactive), the GI50 [13] was > 100 µM (inactive) and the GI50 [14] was > 100 µM (inactive). For the same compound, the GI50 [15] was > 100 µM (inactive).

With Oc1cccc2nc3cc(CN4CCOCC4)c(CN4CCOCC4)cc3nc12 the GI50 [1] was 44.7 µM (inactive), the GI50 [2] was > 100 µM (inactive) and the GI50 [3] was 18.7 µM (inactive). The GI50 [4] was 48.1 µM (inactive), the GI50 [5] was > 100 µM (inactive) and the GI50 [6] was 54.3 µM (inactive). For the same compound, the GI50 [7] was 48.8 µM (inactive), the GI50 [16] was 79.3 µM (inactive) and the GI50 [8] was 59.7 µM (inactive). For the same compound, the GI50 [9] was 48.9 µM (inactive), the GI50 [10] was 33.6 µM (inactive) and the GI50 [11] was 46.7 µM (inactive). The GI50 [12] was 31.9 µM (inactive), the GI50 [13] was 47.8 µM (inactive) and the GI50 [14] was 54.7 µM (inactive). The GI50 [15] was > 100 µM (inactive).

With COc1cc2ccc3c4c(OC)cc(OC)c(OC)c4c([O-])[n+](C)c3c2cc1OC the GI50 [1] was 45.3 µM (inactive), the GI50 [2] was 2.34 µM (inactive) and the GI50 [4] was 1.79 µM (inactive). The GI50 [5] was 30.3 µM (inactive), the GI50 [7] was 6.47 µM (inactive) and the GI50 [16] was 1.74 µM (inactive). For the same compound, the GI50 [8] was > 100 µM (inactive), the GI50 [9] was 9.38 µM (inactive) and the GI50 [10] was 1.39 µM (inactive). The GI50 [11] was 12 µM (inactive), the GI50 [12] was 1.67 µM (inactive) and the GI50 [13] was > 24.8 µM (inactive). For the same compound, the GI50 [14] was 0.428 µM (active) and the GI50 [15] was 10.1 µM (inactive).
